# Key:
# h5-HT5A receptor = target: T1, h5-HT5A receptor (Homo sapiens, UniProt P47898); experiment: [3H]5-CT binding assay h5-HT5A; conditions: membranes from HEK293 cells expressing h5-HT5A, 2.5 nM [3H]5-CT; read-out: Binding affinity 5-HT5A (Ki)
# T1 construct: expressed in transfected cells; host or cells: HEK293
# In short: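 Membranes from HEK293 cells stably expressing h5-HT5A incubated with 2.5 nM [3H]5-CT and compound in 100 mM Tris-HCl pH 7.7, 1 mM EDTA, 75 min at 30° C. Nonspecific binding with 10 μM methiothepine; filtration and scintillation counting give Ki or IC50.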
# HIV-1 RT = HIV-1 RT (Human immunodeficiency virus type 1 group M subtype B, UniProt P03366); conditions: Bioorg. Med. Chem. Lett. 2000 (10), 265-268; cited from earlier work
# T1 sequence (P47898 whole entry): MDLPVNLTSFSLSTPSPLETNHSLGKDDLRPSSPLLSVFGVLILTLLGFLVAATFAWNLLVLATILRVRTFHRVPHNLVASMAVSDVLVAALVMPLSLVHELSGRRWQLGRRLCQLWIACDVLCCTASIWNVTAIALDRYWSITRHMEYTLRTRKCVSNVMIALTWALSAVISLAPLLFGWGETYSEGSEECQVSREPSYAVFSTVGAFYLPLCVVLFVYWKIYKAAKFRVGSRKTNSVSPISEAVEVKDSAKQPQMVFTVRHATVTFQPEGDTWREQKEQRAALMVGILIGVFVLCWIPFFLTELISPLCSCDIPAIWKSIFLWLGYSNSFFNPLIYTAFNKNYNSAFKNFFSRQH
Compound,Ki (h5-HT5A receptor) [nM],biological activity (HIV-1 RT)
"COc1ccccc1CNC(=N)Nc1n[nH]cc1-c1ccccc1 [Example 217, N-(2-methoxybenzyl)-N′-(4-phenyl-1H-pyrazole-3-yl)guanidine]",> 500,–
"COc1cccc(OC)c1CNC(=N)Nc1n[nH]cc1-c1ccccc1 [Example 218, N-(2,6-dimethoxybenzyl)-N′-(4-phenyl-1H-pyrazole-3-yl)guanidine]",> 500,–
"COc1ccc(C(F)(F)F)cc1CNC(=N)Nc1nc(-c2ccccc2)cs1 [Example 221, N-[2-methoxy-5-(trifluoromethyl)benzyl]-N′-(4-phenyl-1,3-thiazole-2-yl)guanidine]",> 500,–
"COc1cccc(OC)c1CNC(=N)Nc1nc2c(s1)CN(Cc1ccccc1)CC2 [Example 226, N-(5-benzyl-4,5,6,7-tetrahydro[1,3]thiazolo[5,4-c]pyridine-2-yl)-N′-(2,6-dimethoxybenzyl)guanidine]",< 50,–
"COc1ccccc1CCNC(=N)Nc1nccs1 [N-[2-(2-methoxyphenyl)ethyl]-N′-1,3-thiazole-2-ylguanidine]",–,did not show any demonstrable biological activity
"Methyl-[2-({imino[(2-methoxybenzyl)amino]methyl}amino)-1,3-thiazole-4-yl]acetate [Example 47]",< 50,–
"N-4H-chromeno[4,3-d][1,3]thiazole-2-yl-N′-(2,6-dimethoxybenzyl)guanidine [Example 222]",< 50,–
"N-(2,6-dimethoxybenzyl)-N′-(5-methyl-4-phenyl-1,3-thiazole-2-yl)guanidine hydrobromide [Example 81]",< 50,–
"N-(2-methoxybenzyl)-N′-1,3-thiazole-2-ylguanidine hydrochloride [Example 11]",50 to 500,–
"N-[4-(2-{[[(2,6-dimethoxybenzyl)amino](imino)methyl]amino}-1,3-thiazole-4-yl)phenyl]acetamide acetate [Example 79]",< 50,–

# Continued, in another order:
Ki (h5-HT5A receptor) [nM],Compound,biological activity (HIV-1 RT)
< 50,"COc1cccc(OC)c1CNC(=N)Nc1ccn(C)n1 [Example 215, N-(2,6-dimethoxybenzyl)-N′-(1-methyl-1H-pyrazole-3-yl)guanidine]",–
< 50,"COc1cccc(C)c1CNC(=N)Nc1cc(C(C)(C)C)[nH]n1 [Example 216, N-(5-tert-butyl-1H-pyrazole-3-yl)-N′-(2-methoxy-6-methylbenzyl)guanidine]",–
< 50,"COc1cccc(OC)c1CNC(=N)Nc1ccn(-c2ccccc2)n1 [Example 219, N-(2,6-dimethoxybenzyl)-N′-(1-phenyl-1H-pyrazole-3-yl)guanidine]",–
< 50,"COc1ccccc1CNC(=N)Nc1ccn(-c2ccccc2)n1 [Example 220, N-(2-methoxybenzyl)-N′-(1-phenyl-1H-pyrazole-3-yl)guanidine]",–
< 50,"COc1cccc(OC)c1CNC(=N)Nc1nc2c(s1)CNCC2 [Example 223, N-(2,6-dimethoxybenzyl)-N′-(4,5,6,7-tetrahydro[1,3]thiazolo[5,4-c]pyridine-2-yl)guanidine]",–
< 50,"COc1cccc(OC)c1CNC(=N)Nc1nc2c(s1)CN(C(C)=O)CC2 [Example 224, N-(5-acetyl-4,5,6,7-tetrahydro[1,3]thiazolo[5,4-c]pyridine-2-yl)-N′-(2,6-dimethoxybenzyl)guanidine]",–
< 50,"COc1cccc(OC)c1CNC(=N)Nc1nc2c(s1)CN(S(=O)(=O)c1ccccc1)CC2 [Example 225, N-(2,6-dimethoxybenzyl)-N′-[5-(phenylsulfonyl)-4,5,6,7-tetrahydro[1,3]thiazolo[5,4-c]pyridine-2-yl]guanidine]",–

# Reference: US8481576B2 (Abbott GmbH & Co. KG, priority 2004, dated 2013)
